Consider 16 compounds from patent US8455534B2, “Estrogen receptor modulators and uses thereof” (Aragon Pharmaceuticals, Inc., priority 2010, dated 2013).

In assay [1] the test system is MCF-7 cells. The assay is described as follows: Breast Cancer Cell Viability Assay (MCF-7, CellTiter-Glo). It is filed as cell-based. The following applies: 5 days' compound exposure; for IC50: Homo sapiens, MCF7, 120 h. The procedure:
MCF-7 cells were adjusted to a concentration of 20,000 cells per mL in RPMI containing 10% FBS and 20 mM HEPES. 16 microliters of the cell suspension (320 cells) was added to each well of a 384 well plate, and the cells were incubated overnight to allow the cells to adhere. The following day an eleven point, serial semilog dilution of each compound was added to the cells in 16 μL at a final concentration ranging from 0.3-0.000003 μM. After 5 days' compound exposure, 16 μL of CellTiter-GLo (Promega, Madison Wis.) was added to the cells the relative luminescence units (RLUs) of each well was determined CellTiter-Glo added to 32 μL of medium without cells was used to obtain a background value. The Percent viability of each sample was determined as follows: (RLU sample-RLU background/RLU untreated cells-RLU background)×100=% viability.
In general terms: In ATP-based viability assays light output follows the ATP content of the culture.

Assay [2] deals with T1, ER-α (Homo sapiens, UniProt P03372).
T1 sequence (P03372 1-595): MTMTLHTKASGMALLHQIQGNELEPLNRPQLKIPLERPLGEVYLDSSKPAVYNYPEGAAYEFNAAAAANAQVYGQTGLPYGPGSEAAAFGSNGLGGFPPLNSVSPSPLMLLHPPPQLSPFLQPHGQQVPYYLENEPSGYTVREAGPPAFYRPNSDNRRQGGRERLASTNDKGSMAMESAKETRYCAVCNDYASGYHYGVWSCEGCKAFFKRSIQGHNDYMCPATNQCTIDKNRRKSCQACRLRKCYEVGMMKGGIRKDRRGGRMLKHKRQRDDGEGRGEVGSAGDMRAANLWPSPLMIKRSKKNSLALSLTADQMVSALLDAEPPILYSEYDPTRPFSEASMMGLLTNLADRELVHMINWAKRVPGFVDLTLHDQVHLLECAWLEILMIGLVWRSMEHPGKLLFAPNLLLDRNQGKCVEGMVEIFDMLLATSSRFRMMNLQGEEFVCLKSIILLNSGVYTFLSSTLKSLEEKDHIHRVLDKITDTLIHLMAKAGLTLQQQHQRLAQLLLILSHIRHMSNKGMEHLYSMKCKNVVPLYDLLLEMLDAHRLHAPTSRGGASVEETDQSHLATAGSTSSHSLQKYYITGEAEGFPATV
The assay is described as follows: Breast Cancer Cell ER-α In Cell Western Assay (SP1). The following applies: MCF-7 cells, SP1 antibody, 4 or 24 hr post compound addition; for Emax: MCF7, read-out: ER-α In Cell Western Assay (SP1) Max Response; for DC50: read-out: ER-α In Cell Western Assay (SP1) IC50. The class given is cell-based. The procedure:
MCF-7 cells were adjusted to a concentration of 200,000 cells per mL in RPMI containing 10% charcoal-stripped FBS and 20 mM HEPES. 16 microliters of the cell suspension (3200 cells) was added to each well of a poly-D-lysine 384 well plate, and the cells were incubated overnight to allow the cells to adhere. The following day an eleven point, serial semilog dilution of each compound was added to the cells in 16 μL at a final concentration ranging from 0.3-0.000003 μM. At 4 or 24 hr post compound addition, the cells were fixed (10% formalin in PBS) for 20 minutes. Cells were permeablized in PBS 0.1% Triton and blocked with LICOR blocking buffer (50 μL1/well, 90′). The wells were then incubated overnight at 4° C. with SP1 rabbit monoclonal Ab (Thermo Scientific) diluted 1:1000 in LICOR blocking buffer/0.1% Tween-20. Wells which were treated with blocking buffer with Tween but no antibody were used as a background control. Wells were washed with 0.1% Tween-20/PBS and then incubated in goat anti-rabbit IRDye™ 800CW (LICOR Inc.; 1:1000) and DRAQ5 DNA dye (1:2000 for 2 mM stock) diluted in LICOR blocking buffer containing 0.1% Tween-20 and 0.01% SDS for 60 minutes. Cells were washed (50 μl/well, 5′ each) in 0.1% Tween-20/PBS. Plates were scanned on a LICOR Odyssey infrared imaging system. Integrated intensities in the 800 nm channel and 700 nm channel were measured to determine levels of ER and DNA respectively. Percent ER levels were determined as follows: (Integrated intensity 800 nm sample/integrated intensity 700 nm sample)/(Integrated intensity 800 nm untreated cells/integrated intensity 700 nm untreated cells)×100=% ER levels.

What is called IC50 is the concentration needed to halve the response being measured. The low end stands for greater potency, the high end for weaker potency. With `O=C(O)/C=C/c1ccc(/C(=C(\c2ccccc2)C(F)F)c2ccc3[nH]ncc3c2)cc1` [Compound 64, (E)-3-(4-((Z)-3,3-Difluoro-1-(1H-indazol-5-yl)-2-phenylprop-1-en-1-yl)phenyl)acrylic acid], in assay [1], the “MCF7 Viability Assay Max Response” value is listed as “++ (++ = a single % value ≧ 40%)” and the IC50 is at most 100 nM. Further, in assay [2], the Emax was at least 40% and the DC50 is at most 100 nM.

As for `[2H]C([2H])([2H])C([2H])([2H])/C(=C(/c1ccc(/C=C/C(=O)O)cc1)c1ccc2[nH]ncc2c1)c1ccc(Cl)cc1Cl` [Compound 132, (E)-3-(4-((E)-2-(2,4-Dichlorophenyl)-3,3,4,4,4-pentadeutero-1-(1H-indazol-5-yl)but-1-en-1-yl)phenyl)acrylic acid], in assay [1], the “MCF7 Viability Assay Max Response” value was “++ (++ = a single % value ≧ 40%)” and the IC50 is at most 100 nM. In addition, in assay [2], the Emax is at least 40% and the DC50 was at most 100 nM.

Regarding `CC/C(=C(/c1ccc(/C=C/C(=O)O)cc1)c1ccc2[nH]ncc2c1)c1cccc(Cl)c1` [Compound 15, (E)-3-(4-((E)-2-(3-Chlorophenyl)-1-(1H-indazol-5-yl)but-1-en-1-yl)phenyl)acrylic acid], in assay [1], the “MCF7 Viability Assay Max Response” value was “++ (++ = a single % value ≧ 40%)” and the IC50 is at most 100 nM. For the same compound, the Emax in assay [2] is at least 40%.

Consider `CC/C(=C(/c1ccc(/C=C/C(=O)O)cc1)c1ccc2[nH]ncc2c1)c1cccc(C#N)c1` [Compound 44, (E)-3-(4-((E)-2-(3-Cyanophenyl)-1-(1H-indazol-5-yl)but-1-en-1-yl)phenyl)acrylic acid], for which, in assay [1], the “MCF7 Viability Assay Max Response” value was “++ (++ = a single % value ≧ 40%)” and the IC50 was at most 100 nM. In addition, the Emax in assay [2] is at least 40%.

Turning to `CC/C(=C(/c1ccc(/C=C/C(=O)O)cc1)c1ccc2[nH]ncc2c1)c1ccc(Cl)cc1C` [Compound 41, (E)-3-(4-((E)-2-(4-Chloro-2-methylphenyl)-1-(1H-indazol-5-yl)but-1-en-1-yl)phenyl)acrylic acid], in assay [1], the “MCF7 Viability Assay Max Response” value is given as “++ (++ = a single % value ≧ 40%)” and the IC50 was at most 100 nM. Moreover, in assay [2], the Emax was at least 40% and the DC50 is at most 100 nM.

On to `COCCC/C(=C(/c1ccc(/C=C/C(=O)O)cc1)c1ccc2[nH]ncc2c1)c1ccccc1` [Compound 80, (E)-3-(4-((E)-1-(1H-Indazol-5-yl)-5-methoxy-2-phenylpent-1-en-1-yl)phenyl)acrylic acid], for which, in assay [1], the “MCF7 Viability Assay Max Response” value was “++ (++ = a single % value ≧ 40%)” and the IC50 is above 100 nM. Moreover, in assay [2], the Emax is at least 40% and the DC50 is at most 100 nM.

Regarding `CC/C(=C(/c1ccc(/C=C/C(=O)O)cc1)c1ccc2[nH]ncc2c1)c1ccc(C#N)cc1` [Compound 45, (E)-3-(4-((E)-2-(4-Cyanophenyl)-1-(1H-indazol-5-yl)but-1-en-1-yl)phenyl)acrylic acid], in assay [1], the “MCF7 Viability Assay Max Response” value is on record as “++ (++ = a single % value ≧ 40%)” and the IC50 is at most 100 nM. Further, in assay [2], the Emax is at least 40%.

On to `CC/C(=C(/c1ccc(/C=C/C(=O)O)cc1)c1ccc2[nH]ncc2c1)c1ccc(F)cc1F` [Compound 22, (E)-3-(4-((E)-2-(2,4-Difluorophenyl)-1-(1H-indazol-5-yl)but-1-en-1-yl)phenyl)acrylic acid], for which, in assay [1], the “MCF7 Viability Assay Max Response” value is “++ (++ = a single % value ≧ 40%)” and the IC50 is at most 100 nM. In addition, in assay [2], the Emax is at least 40% and the DC50 is at most 100 nM.

As to `O=C(O)/C=C/c1ccc(/C(=C(\c2ccc(F)cc2Cl)C2CC2)c2ccc3[nH]ncc3c2)cc1` [Compound 115, (E)-3-(4-((E)-2-(2-Chloro-4-fluorophenyl)-2-cyclopropyl-1-(1H-indazol-5-yl)vinyl)phenyl)acrylic acid], in assay [1], the “MCF7 Viability Assay Max Response” value is “++ (++ = a single % value ≧ 40%)” and the IC50 is at most 100 nM. Also, in assay [2], the Emax was at least 40% and the DC50 was at most 100 nM.

In the case of `CC/C(=C(/c1ccc(/C=C/C(=O)O)cc1)c1cc2cn[nH]c2cc1F)c1ccccc1` [Compound 58, (E)-3-(4-((E)-1-(6-Fluoro-1H-indazol-5-yl)-2-phenylbut-1-en-1-yl)phenyl)acrylic acid], in assay [1], the “MCF7 Viability Assay Max Response” value is reported as “++ (++ = a single % value ≧ 40%)” and the IC50 is at most 100 nM. In assay [2], the Emax was at least 40% and the DC50 is at most 100 nM.

For `O=C(O)/C=C/c1ccc(/C(=C(\c2ccccc2Cl)C2CC2)c2ccc3[nH]ncc3c2)cc1` [Compound 57, (E)-3-(4-((E)-2-(2-Chlorophenyl)-2-cyclopropyl-1-(1H-indazol-5-yl)vinyl)phenyl)acrylic acid], in assay [1], the “MCF7 Viability Assay Max Response” value is listed as “++ (++ = a single % value ≧ 40%)” and the IC50 was at most 100 nM. For the same compound, in assay [2], the Emax is at least 40% and the DC50 is at most 100 nM.

On to `CC/C(=C(/c1ccc(/C=C(\Cl)C(=O)O)cc1)c1ccc2[nH]ncc2c1)c1ccccc1` [Compound 104, (Z)-3-(4-((E)-1-(1H-Indazol-5-yl)-2-phenylbut-1-en-1-yl)phenyl)-2-chloroacrylic acid], for which, in assay [1], the “MCF7 Viability Assay Max Response” value is “++ (++ = a single % value ≧ 40%)” and the IC50 is above 100 nM. Moreover, in assay [2], the Emax was at least 40% and the DC50 was at most 100 nM.

As to `CC/C(=C(/c1ccc(/C=C/C(=O)O)cc1)c1ccc2[nH]ncc2c1)c1ccc(Cl)cc1C#N` [Compound 137, (E)-3-(4-((E)-2-(4-Chloro-2-cyanophenyl)-1-(1H-indazol-5-yl)but-1-en-1-yl)phenyl)acrylic acid], in assay [1], the “MCF7 Viability Assay Max Response” value is given as “++ (++ = a single % value ≧ 40%)” and the IC50 is at most 100 nM. In assay [2], the Emax was at least 40% and the DC50 is at most 100 nM.

Turning to `CC/C(=C(/c1ccc(/C=C/C(=O)O)cc1)c1cc(F)c2[nH]ncc2c1)c1ccc(F)cc1Cl` [Compound 65, (E)-3-(4-((E)-2-(2-Chloro-4-fluorophenyl)-1-(7-fluoro-1H-indazol-5-yl)but-1-en-1-yl)phenyl)acrylic acid], in assay [1], the “MCF7 Viability Assay Max Response” value was “++ (++ = a single % value ≧ 40%)” and the IC50 is at most 100 nM. In assay [2], the Emax is at least 40% and the DC50 is at most 100 nM.

For `O=C(O)/C=C/c1ccc(/C(=C(\c2ccc(F)cc2Cl)C2CCC2)c2ccc3[nH]ncc3c2)cc1` [Compound 85, (E)-3-(4-((E)-2-(2-Chloro-4-fluorophenyl)-2-cyclobutyl-1-(1H-indazol-5-yl)vinyl)phenyl)acrylic acid], in assay [1], the “MCF7 Viability Assay Max Response” value is reported as “++ (++ = a single % value ≧ 40%)” and the IC50 is at most 100 nM. In addition, in assay [2], the Emax is at least 40% and the DC50 was at most 100 nM.

Consider `CC/C(=C(/c1ccc(/C=C/C(=O)O)cc1)c1cc2cn[nH]c2cc1Cl)c1ccccc1` [Compound 50, (E)-3-(4-((E)-1-(6-Chloro-1H-indazol-5-yl)-2-phenylbut-1-en-1-yl)phenyl)acrylic acid], for which, in assay [1], the “MCF7 Viability Assay Max Response” value is listed as “++ (++ = a single % value ≧ 40%)” and the IC50 is at most 100 nM. Besides, in assay [2], the Emax was at least 40% and the DC50 is at most 100 nM.
